Data from patent US20220220100A1 (SOLUTIA CANADA INC., priority 2019, published 2022).

Assays:
Format in all cases: physicochemical
[1] = Photostability: xenon arc weathering of chromophore solutions, LCMS analysis; conditions: for Ketone (%) / Minus-2HF (%) / Minus-HF (%) / Sulfone (%) / Chromophore Remaining (%): xenon arc, 82° C. bp; for Ketone (%) / Minus-2HF (%) / Minus-HF (%) / Sulfone (%): linearly interpolated to 0.5 MJ/m2 @ 340 nm; for Chromophore Remaining (%): linearly interpolated to 0.5 MJ/m2 @ 340 nm of exposure energy; for Photostability (in words): weathering experiments
From the text: Photostability (resistance to light-induced degradation) may be measured by the amount of time required for the compound, or a material comprising the compound, to degrade to a certain point under light exposure. The light exposure may be constant, or cyclic. The light transmittance or absorbance of the compound, or material comprising the compound, may be determined at both a light state and dark state prior to testing, to determine a contrast ratio. During testing, the contrast ratio may be monitored (periodically or continually), the compound or material may be determined to have failed when the contrast ratio falls outside, or below, a selected range, or when the contrast ratio decreases to a percentage of the original contrast ratio. Photostability may also be expressed with reference to a light source or with reference to a type of light.
Chromophore solutions in Rhodiasolv IRIS were prepared at 1 to 10 wt % loading. Solutions were prepared in a glovebox by charging the chromophore and Rhodiasolv IRIS to a trace-clean vial, and the solution was stirred on a hotplate at 90° C. for 2-24 hours. After cooling, the chromophore solution was injected into glass weathering cells and the fill and vent ports were sealed with a thin disc of Kalrez (FFKM Perfluorinated Elastomer) and secured with a clamp and set-screw. The weathering cells were filled and sealed inside the glove box.
Measurement of Photostability
A. Fabrication of cuvettes. Two holes of 0.8 mm diameter were drilled at opposite ends in a 75×50 mm piece of float glass using a diamond drill bit in a rotary tool. The drilled glass and a matching piece of undrilled glass were then cleaned using hot soapy water, rinsed with deionized water and acetone and then dried with compressed air. A 5 mm wide frame was cut from a sheet of 50 μm thickness EVAL EF-F using a laser engraver. The EVAL frame was placed around the perimeter of one sheet of glass and sandwiched by the second sheet of glass. The glass-EVAL-glass sandwich was secured with tape and heated under vacuum (10 mmHg) for 30 minutes at 170° C. in a vacuum bag. After cooling, a third piece of float glass was PVB laminated to the non-drilled side of the sealed glass cells using Trosifol UV Extra Protect B150 PVB (400 nm UV cut-off).
B. Xenon arc weathering protocol. Devices were exposed to simulated weathering conditions inside a Xe-3-HS xenon arc chamber, manufactured by Q-labs Inc. The samples were weathered according to the following table. The devices were exposed to these conditions continuously, with no dark or spray cycles included.
C. Analysis of weathered chromophore solutions by LCMS. The set-screws, metal clamps and Kalrez plugs were removed from the cuvette to expose the fill port. A 5 mL plastic syringe (NORM-JECT®) equipped with a tip (Precision Tips, 0.010″ RED) was inserted into one fill port and the chromophore solution was withdrawn from the cuvette. The chromophore solution was then injected into a 2 mL amber vial (part number 5182-0716, Agilent Technology) prefilled with 1.5 mL LC-MS grade acetonitrile (HiPerSolbe CHROMANORM Acetonitrile, VWR BDH Chemicals). An aliquot of the acetonitrile solution (2 μL) was injected into the LC-MS system (Agilent Infinity 1290 LC-MS system with diode array detector) through an autosampler mechanism. Species in the injected sample were separated through a reverse phase column (Zorbax SB-C18, 2.1×50 mm, 1.8 μm, operated at 40° C.), using a mixture of acetonitrile (mixed with 1% formic acid v/v ratio), methanol (HiPerSolbe CHROMANORM Methanol, VWR BDH Chemicals) and water (HiPerSolbe CHROMANORM Water, VWR BDH Chemicals) as mobile phase.

[2] = UV/Vis absorbance at 400 nm and Yellowness Index of the ring-open isomer; conditions: for Abs @ 400 nm, RO (Absorption of ring-open isomer at 400 nm): 2×10^−5 M solution, 1 cm pathlength cuvette
From the text: In addition to the above, chromophores should have acceptable colour for both the ring-opened and ring-closed isomers. For example, the ring-open isomer of the chromophore should have a Yellowness Index (YI) of less than about 10 and an absorbance at 400 nm, as measured for a 2×10^−5 M solution in a 1 cm pathlength cuvette. For the ring-closed isomer of the chromophore, the lambda max should be between about 475 nm and 700 nm, tunable according to desired colour and number of chromophores in the composition.
(§1) UV/Vis spectra were obtained using an OceanOptics™ Spectrophotometer. A 2×10^−5 M solution of compound in solvent was prepared, and photofaded using visible light until absorption in the visible region of the spectrum stabilized. The sample was then irradiated with simulated sunlight (QSUN SS-150 Solar Simulator with xenon arc lamp) until the absorption spectrum stabilized. To obtain PSS in the presence of a UV blocking film, a second sample was prepared and irradiated as described, with a UV blocking film inserted in the light path when irradiating.

[3] = Photostationary state (PSS) and lambda max under simulated sunlight (solar simulator); conditions: for PSS (SS): absorbance at photostationary state, simulated sunlight (solar simulator), 2×10^−5 M solution; for λmax (nm): peak in the visible range, ring-closed (dark) state
From the text: The term “photostationary state” (PSS) refers to an equilibrium state of a compound or material where the rate of the ring closing (forward) reaction is equal to the rate of the ring-opening reaction, when irradiated with light in a given region of the spectrum. In other words, the ratio of the ring-open isomer to the ring-closed isomer is at an equilibrium. PSS may be expressed with reference to a light source, or with reference to a type of light, for example, QUV, Xenon-arc lamp, Q-SUN, natural or filtered sunlight, UV, VIS, IR, NIR, full spectrum or the like, or with reference to a particular wavelength or range of wavelengths, or in the presence or absence of a filter. Some ring-open and ring-closed isomers may undergo isomerization from one to the other in response to different wavelengths of light. If a wavelength of light is used where only one of the isomers absorbs, irradiation results in complete isomerization to the other form. 254 nm, 313 nm or 365 nm light are commonly used in studies of UV-absorbing isomers, but this may not be representative of the PSS under other light conditions that include the visible spectrum such as natural or simulated sunlight (“full spectrum” light) and/or with filters that block a portion of the UV component of the light. For example, in a ring-closed (dark) state, the magnitude of the maximum absorbance in the visible range may change with the light source (FIG. 1). The wavelength at this peak in the visible range may be referred to as lambda max, or λmax. […] When full spectrum light from a solar simulator (Xenon arc lamp) is used as a light source (line B), a balance is achieved between the ring-closed (dark) state induced by the UV component, and a ring-open (faded) state induced by the visible component of the light. Inclusion of a UV blocking layer in the light path (line A) may reduce the UV component of the light, and the ring-opening reaction induced by the visible light component becomes more prominent. […] Where desired, the ratio of ring-open and ring-closed isomers at a PSS may be quantified by ^1H NMR spectroscopy, such as described in U.S. Pat. No. 7,777,055. In various embodiments, compounds with an increased absorbance at a photostationary state (PSS), or increased contrast ratio, are an improvement over other diarylethene compounds. A compound with a greater absorbance in the visible range can be used in lesser quantities in a formulation or material to achieve a desired contrast ratio, whereas a compound with a lower absorbance at a PSS may need a higher concentration to achieve a desired contrast ratio.
Photostationary State (PSS)
as §1

[4] = Oxidation potential of ring-closed and ring-open isomers; conditions: no unit printed in table (V relative to Ag/AgCl)
From the text: In various embodiments, at a PSS, some of the chromophore will be in the ring-closed isomer, with a small, but non-zero portion of ring-open isomer. The oxidation potential of a ring-open isomer may be more anodic than the oxidation potential of a ring-closed isomer. Exposure to a potential that is too far beyond what is necessary to oxidize the ring-closed isomer may result in oxidation of the ring-open isomer, which may be irreversible and result in electrochemically-induced degradation of the chromophore.
Thus, in various embodiments, an anodic chromophore may have an oxidation potential of from about 0.4 V to 1.2 V for the ring-closed isomer and about 1.0 V to 2.5 V for the ring-open isomer relative to an Ag/AgCl reference electrode. In various embodiments, the oxidation potential for the ring-open isomer is about 250 mV more anodic than the oxidation potential for the ring-closed isomer. For example, the oxidation potential may be about 260 mV, about 280 mV, about 300 mV, about 320 mV, about 340 mV, about 360 mV, about 380 mV, about 400 mV, about 420 mV, about 440 mV, or about 460 mV more anodic than the oxidation potential for the ring-closed isomer.

[5] = 1 wt %, interpolated to 0.5 MJ/m^2 of energy exposure at 340 nm

## COc1cc2oc(-c3ccc(C(C)(C)C)cc3)c(C3=C(c4cc(-c5cccs5)sc4-c4cccs4)C(F)(F)C(F)(F)C3(F)F)c2cc1OC [Chromophore S193, 3-(2-([2,2′:5′,2″-terthiophen]-3′-yl)-3,3,4,4,5,5-hexafluorocyclopent-1-en-1-yl)-2-(4-(tert-butyl)phenyl)-5,6-dimethoxybenzofuran]
[1]; 3 wt % in Rhodiasolv IRIS
  Ketone (%): 0.0%
  Minus-2HF (%): 2.1%
  Minus-HF (%): 1.4%
  Sulfone (%): 0.0%
  Chromophore Remaining (%): 92.7%
[1]; 3 wt %, interpolated to 0.5 MJ/m^2 of energy exposure at 340 nm
  Ratio of chromophore remaining relative to S340: 1.02
[1]
  Photostability (in words): high photostability
[2]
  YI (Yellowness Index): 3.59
  Abs @ 400 nm, RO (Absorption of ring-open isomer at 400 nm): 0.097
[3]
  PSS (SS): 0.269
  λmax (nm): 587 nm
[4]; ring-closed isomer
  RC [O] (oxidation potential of ring-closed isomer): 1.02
[4]; ring-open isomer
  RO [O] (oxidation potential of ring-open isomer): 1.41

## COc1cc2oc(-c3ccc(C(C)(C)C)cc3)c(C3=C(c4cc(-c5cc6c(s5)C(C)(C)CC6(C)C)sc4-c4cc5c(s4)C(C)(C)CC5(C)C)C(F)(F)C(F)(F)C3(F)F)c2cc1OC [Chromophore S404]
[1]; 1 wt % in Rhodiasolv IRIS
  Ketone (%): 0.0%
  Minus-2HF (%): 0.0%
  Minus-HF (%): 0.0%
  Sulfone (%): 0.0%
  Chromophore Remaining (%): 100.0%
[1]; [5]
  Ratio of chromophore remaining relative to S340: 1.10
  Sum of degradation product percentages relative to the sum of degradation product percentages for S340: 0.00
[1]
  Photostability (in words): high photostability
[2]
  YI (Yellowness Index): 11.1
  Abs @ 400 nm, RO (Absorption of ring-open isomer at 400 nm): 0.182
[3]
  PSS (SS): 0.429
  λmax (nm): 599 nm
